Measured values taken from US20150005288A1, “SUBSTITUTED PHENYLIMIDAZOPYRAZOLES AND USE THEREOF” (Bayer Intellectual Property GmbH, priority 2012, published 2015).

Molecular target: T1, intracellular domain of human Tie2 (GST fusion protein) (Homo sapiens, UniProt Q02763)
T1 construct: intracellular domain of human Tie2 (amino acids 776-1124); made in house; host or cells: Baculovirus-infected insect cells (Hi5)
Test: Tie2 kinase assay (Tie2-TR-FRET)
Format: biochemical
Conditions: ATP concentration 1 mM, in some cases means of several independent determinations
Summary of the method: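 High ATP (1 mM final) with 1 μM biotin-peptide substrate; reaction 60 min at 22 °C after 15 min compound pre-binding to GST-Tie2 (aa 776-1124) in HEPES pH 7 with Mg/Mn. Phosphopeptide detected by TR-FRET emission ratio 665/620 nm. IC50 from 4-parameter fit over 20 μM to 0.073 nM, duplicates.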

T1 sequence (Q02763 776-1124): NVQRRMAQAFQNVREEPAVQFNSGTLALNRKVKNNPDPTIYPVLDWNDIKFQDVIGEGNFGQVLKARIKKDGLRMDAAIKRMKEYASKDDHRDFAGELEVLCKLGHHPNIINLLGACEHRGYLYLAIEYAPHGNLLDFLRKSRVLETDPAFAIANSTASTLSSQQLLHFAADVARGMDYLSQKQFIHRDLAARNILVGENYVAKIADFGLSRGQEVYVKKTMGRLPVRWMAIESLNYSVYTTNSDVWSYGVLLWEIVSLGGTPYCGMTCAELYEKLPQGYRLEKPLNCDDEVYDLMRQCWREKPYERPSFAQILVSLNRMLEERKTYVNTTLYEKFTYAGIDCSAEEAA

SMILES | IC50 [nM]
Cc1ccc(-n2ccn3nc(-c4cccnc4)cc23)cc1NC(=O)c1cc(C#N)cc(C(C)(C)C)c1 [Example 79] | 26
Cc1c(NC(=O)c2cc(C#N)cc(S(F)(F)(F)(F)F)c2)cccc1-n1ccn2nc(-c3cccnc3)cc12 [Example 80, 3-Cyano-N-{2-methyl-3-[6-(pyridin-3-yl)-1H-imidazo[1,2-b]pyrazol-1-yl]phenyl}-5-(pentafluoro-λ^6-sulphanyl)benzamide] | 725
N#Cc1cc(C(=O)Nc2cccc(-n3ccn4nc(-c5cccnc5)cc34)c2F)cc(S(F)(F)(F)(F)F)c1 [Example 81, 3-Cyano-N-{2-fluoro-3-[6-(pyridin-3-yl)-1H-imidazo[1,2-b]pyrazol-1-yl]phenyl}-5-(pentafluoro-λ^6-sulphanyl)benzamide] | 435
O=C(Nc1cccc(-n2ccn3nc(-c4cccnc4)cc23)c1O)c1cccc(S(F)(F)(F)(F)F)c1 [Example 82, N-{2-Hydroxy-3-[6-(pyridin-3-yl)-1H-imidazo[1,2-b]pyrazol-1-yl]phenyl}-3-(pentafluoro-λ^6-sulphanyl)benzamide] | 250
N#Cc1cc(C(=O)Nc2cccc(-n3ccn4nc(-c5cccnc5)cc34)c2O)cc(S(F)(F)(F)(F)F)c1 [Example 83, 3-Cyano-N-{2-hydroxy-3-[6-(pyridin-3-yl)-1H-imidazo[1,2-b]pyrazol-1-yl]phenyl}-5-(pentafluoro-λ^6-sulphanyl)benzamide] | 110
Cc1ccc(NC(=O)c2cccc(S(F)(F)(F)(F)F)c2)cc1-n1ccn2nc(-c3cnccn3)cc12 [Example 84, N-{4-Methyl-3-[6-(pyrazin-2-yl)-1H-imidazo[1,2-b]pyrazol-1-yl]phenyl}-3-(pentafluoro-λ^6-sulphanyl)benzamide] | 220
Cc1cc(C)c(-n2ccn3nc(-c4cn[nH]c4)cc23)cc1NC(=O)c1cc(C#N)cc(S(F)(F)(F)(F)F)c1 [Example 86, 3-Cyano-N-{2,4-dimethyl-5-[6-(1H-pyrazol-4-yl)-1H-imidazo[1,2-b]pyrazol-1-yl]phenyl}-5-(pentafluoro-λ^6-sulphanyl)benzamide] | 1.1
N#Cc1cc(C(=O)Nc2cccc(-n3ccn4nc(-c5cccnc5)cc34)c2)cc(S(F)(F)(F)(F)F)c1 [Example 87, 3-Cyano-5-(pentafluoro-λ^6-sulphanyl)-N-{3-[6-(pyridin-3-yl)-1H-imidazo[1,2-b]pyrazol-1-yl]-phenyl}benzamide] | 980
Cc1ccc(NC(=O)c2cc(Br)cc(S(F)(F)(F)(F)F)c2)cc1-n1ccn2nc(-c3cccnc3)cc12 [Example 89, 3-Bromo-N-{4-methyl-3-[6-(pyridin-3-yl)-1H-imidazo[1,2-b]pyrazol-1-yl]phenyl}-5-(pentafluoro-λ^6-sulphanyl)benzamide] | 2.3
COc1ccc(S(F)(F)(F)(F)F)cc1C(=O)Nc1ccc(C)c(-n2ccn3nc(-c4cccnc4)cc23)c1 [Example 90, 2-Methoxy-N-{4-methyl-3-[6-(pyridin-3-yl)-1H-imidazo[1,2-b]pyrazol-1-yl]phenyl}-5-(pentafluoro-λ^6-sulphanyl)benzamide] | 91
Cc1ccc(S(F)(F)(F)(F)F)cc1C(=O)Nc1ccc(C)c(-n2ccn3nc(-c4cccnc4)cc23)c1 [Example 91, 2-Methyl-N-{4-methyl-3-[6-(pyridin-3-yl)-1H-imidazo[1,2-b]pyrazol-1-yl]phenyl}-5-(pentafluoro-λ^6-sulphanyl)benzamide] | 215
Cc1ccc(NC(=O)c2cc(C#N)cc(C3(O)CCC3)c2)cc1-n1ccn2nc(-c3cccnc3)cc12 [Example 92, 3-Cyano-5-(1-hydroxycyclobutyl)-N-{4-methyl-3-[6-(pyridin-3-yl)-1H-imidazo[1,2-b]pyrazol-1-yl]phenyl}benzamide] | 29
Cc1ccc(NC(=O)c2cc(C#N)nc(C(C)(C)C)c2)cc1-n1ccn2nc(-c3cccnc3)cc12 [Example 93, 2-tert-Butyl-6-cyano-N-{4-methyl-3-[6-(pyridin-3-yl)-1H-imidazo[1,2-b]pyrazol-1-yl]phenyl}-isonicotinamide] | 19
N#Cc1cc(C(=O)Nc2ccc(C(F)(F)F)c(-n3ccn4nc(-c5cccnc5)cc34)c2)cc(S(F)(F)(F)(F)F)c1 [Example 95, 3-Cyano-5-(pentafluoro-λ^6-sulphanyl)-N-{3-[6-(pyridin-3-yl)-1H-imidazo[1,2-b]pyrazol-1-yl]-4-(trifluoromethyl)phenyl}benzamide] | 350
O=C(Nc1ccc(Cl)c(-n2ccn3nc(-c4cccnc4)cc23)c1)c1cccc(S(F)(F)(F)(F)F)c1 [Example 96, N-{4-Chloro-3-[6-(pyridin-3-yl)-1H-imidazo[1,2-b]pyrazol-1-yl]phenyl}-3-(pentafluoro-λ^6-sulphanyl)benzamide] | 47
N#Cc1cc(C(=O)Nc2ccc(Cl)c(-n3ccn4nc(-c5cccnc5)cc34)c2)cc(S(F)(F)(F)(F)F)c1 [Example 97, N-{4-Chloro-3-[6-(pyridin-3-yl)-1H-imidazo[1,2-b]pyrazol-1-yl]phenyl}-3-cyano-5-(pentafluoro-λ^6-sulphanyl)benzamide] | 9.2
COc1ccc(NC(=O)c2cc(Br)cc(S(F)(F)(F)(F)F)c2)cc1-n1ccn2nc(-c3cccnc3)cc12 [Example 98, 3-Bromo-N-{4-methoxy-3-[6-(pyridin-3-yl)-1H-imidazo[1,2-b]pyrazol-1-yl]phenyl}-5-(pentafluoro-λ^6-sulphanyl)benzamide] | 595
COc1ccc(NC(=O)c2cc(C#N)cc(S(F)(F)(F)(F)F)c2)cc1-n1ccn2nc(-c3cccnc3)cc12 [Example 99, 3-Cyano-N-{4-methoxy-3-[6-(pyridin-3-yl)-1H-imidazo[1,2-b]pyrazol-1-yl]phenyl}-5-(pentafluoro-λ^6-sulphanyl)benzamide] | 240
Cc1cc(NC(=O)c2cccc(S(F)(F)(F)(F)F)c2)cc(-n2ccn3nc(-c4cccnc4)cc23)c1C [Example 100, N-{3,4-Dimethyl-5-[6-(pyridin-3-yl)-1H-imidazo[1,2-b]pyrazol-1-yl]phenyl}-3-(pentafluoro-λ^6-sulphanyl)benzamide] | 175
Cc1c(F)cc(NC(=O)c2cccc(S(F)(F)(F)(F)F)c2)cc1-n1ccn2nc(-c3cccnc3)cc12 [Example 103, N-{3-Fluoro-4-methyl-5-[6-(pyridin-3-yl)-1H-imidazo[1,2-b]pyrazol-1-yl]phenyl}-3-(pentafluoro-λ^6-sulphanyl)benzamide] | 130
Cc1c(F)cc(NC(=O)c2cc(C#N)cc(S(F)(F)(F)(F)F)c2)cc1-n1ccn2nc(-c3cccnc3)cc12 [Example 105, 3-Cyano-N-{3-fluoro-4-methyl-5-[6-(pyridin-3-yl)-1H-imidazo[1,2-b]pyrazol-1-yl]phenyl}-5-(pentafluoro-λ^6-sulphanyl)benzamide] | 39
Cc1c(Cl)cc(NC(=O)c2cccc(S(F)(F)(F)(F)F)c2)cc1-n1ccn2nc(-c3cccnc3)cc12 [Example 106, N-{3-Chloro-4-methyl-5-[6-(pyridin-3-yl)-1H-imidazo[1,2-b]pyrazol-1-yl]phenyl}-3-(pentafluoro-λ^6-sulphanyl)benzamide] | 110
Cc1cc(C)c(-n2ccn3nc(-c4cccnc4)cc23)cc1NC(=O)c1cc(Cl)cc(S(F)(F)(F)(F)F)c1 [Example 108, 3-Chloro-N-{2,4-dimethyl-5-[6-(pyridin-3-yl)-1H-imidazo[1,2-b]pyrazol-1-yl]phenyl}-5-(pentafluoro-λ^6-sulphanyl)benzamide] | 0.7
Cc1cc(C)c(-n2ccn3nc(-c4cccnc4)cc23)cc1NC(=O)c1cc(Br)cc(S(F)(F)(F)(F)F)c1 [Example 109, 3-Bromo-N-{2,4-dimethyl-5-[6-(pyridin-3-yl)-1H-imidazo[1,2-b]pyrazol-1-yl]phenyl}-5-(pentafluoro-λ^6-sulphanyl)benzamide] | 0.5
Cc1cc(C)c(-n2ccn3nc(-c4cccnc4)cc23)cc1NC(=O)c1cc(C(=O)O)cc(S(F)(F)(F)(F)F)c1 [Example 110, 3-({2,4-Dimethyl-5-[6-(pyridin-3-yl)-1H-imidazo[1,2-b]pyrazol-1-yl]phenyl}carbamoyl)-5-(pentafluoro-λ^6-sulphanyl)benzoic acid] | 5
Cc1cc(C(=O)Nc2cc(-n3ccn4nc(-c5cccnc5)cc34)c(C)cc2C)cc(S(F)(F)(F)(F)F)c1 [Example 111, N-{2,4-Dimethyl-5-[6-(pyridin-3-yl)-1H-imidazo[1,2-b]pyrazol-1-yl]phenyl}-3-methyl-5-(pentafluoro-λ^6-sulphanyl)benzamide] | 0.7
Cc1cc(C)c(-n2ccn3nc(-c4cccnc4)cc23)cc1NC(=O)c1cc(Br)cc(C(C)(C)C)c1 [Example 113, 3-Bromo-5-tert-butyl-N-{2,4-dimethyl-5-[6-(pyridin-3-yl)-1H-imidazo[1,2-b]pyrazol-1-yl]-phenyl}benzamide] | 0.6
Cc1cc(C)c(-n2ccn3nc(-c4cccnc4)cc23)cc1NC(=O)c1cc(C#N)cc(C(C)(C)C)c1 [Example 114, 3-tert-Butyl-5-cyano-N-{2,4-dimethyl-5-[6-(pyridin-3-yl)-1H-imidazo[1,2-b]pyrazol-1-yl]phenyl}-benzamide] | 0.3
Cc1cc(C)c(-n2ccn3nc(-c4cccnc4)cc23)cc1NC(=O)c1cc(Cl)nc(C(C)(C)C)c1 [Example 115, 2-tert-Butyl-6-chloro-N-{2,4-dimethyl-5-[6-(pyridin-3-yl)-1H-imidazo[1,2-b]pyrazol-1-yl]-phenyl}isonicotinamide] | 0.8
Cc1cc(F)c(NC(=O)c2cc(C#N)cc(C(C)(C)C)c2)cc1-n1ccn2nc(-c3cccnc3)cc12 [Example 118, 3-tert-Butyl-5-cyano-N-{2-fluoro-4-methyl-5-[6-(pyridin-3-yl)-1H-imidazo[1,2-b]pyrazol-1-yl]-phenyl}benzamide] | 0.4
